23 molecules from US20250026752A1, “POSITIVE ALLOSTERIC MODULATORS OF THE MUSCARINIC ACETYLCHOLINE RECEPTOR M4” (Vanderbilt University, priority 2021, published 2025) can be followed below.

Structures are written as SMILES. pEC50: −log10 of the molar value.

This assay concerns the target T1, human mAChR M4 (Homo sapiens, UniProt P08173).
T1 construct: expressed in transfected cells; host or cells: CHO-K1 (ATCC), stably expressing hM4 and Gqi5
T1 sequence (P08173 1-479): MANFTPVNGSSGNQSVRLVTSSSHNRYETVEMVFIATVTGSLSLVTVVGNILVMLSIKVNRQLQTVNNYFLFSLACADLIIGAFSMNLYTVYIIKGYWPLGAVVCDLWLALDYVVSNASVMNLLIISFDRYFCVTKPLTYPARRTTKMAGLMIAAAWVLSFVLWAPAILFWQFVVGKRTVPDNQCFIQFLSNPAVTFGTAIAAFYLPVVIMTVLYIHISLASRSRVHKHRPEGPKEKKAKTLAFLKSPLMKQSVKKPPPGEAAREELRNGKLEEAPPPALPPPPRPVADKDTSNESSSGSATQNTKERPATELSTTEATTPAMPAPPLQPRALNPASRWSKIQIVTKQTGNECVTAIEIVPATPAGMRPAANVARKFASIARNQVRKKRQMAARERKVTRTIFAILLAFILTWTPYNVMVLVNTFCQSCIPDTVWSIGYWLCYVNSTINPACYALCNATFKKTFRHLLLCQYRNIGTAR
Description: mAChR M4 cell-based functional assay: calcium flux (Fluo-4, FDSS), positive allosteric modulator activity on the EC20 acetylcholine response, hM4-Gqi5 CHO-K1 cells. Conditions: for Emax at 30 µM: CHO-K1, human M4, % ACh maximum at 30 μM; for pEC50: human M4, PAM activity on EC20 acetylcholine response, calcium flux, read-out: Human M4 EC50. The method in brief:
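CHO-K1 cells stably expressing human M4 with chimeric Gqi5, loaded with Fluo-4 AM for 50 min at 37° C. Compounds (11-point, 1:3 dilutions) added first, then an acetylcholine EC20 at 144 s; calcium read on FDSS at 1 Hz. EC50 is the half-maximal increase above the EC20 baseline, four-parameter logistic fit.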

`Cc1ccc(-c2cnc3c(c2)CN(c2nc(Cl)nc4ncccc24)CC3)cn1` [Compound 36, 2-chloro-4-[3-(6-methyl-3-pyridyl)-7,8-dihydro-5H-1,6-naphthyridin-6-yl]pyrido[2,3-d]pyrimidine]: the Emax at 30 µM was determined as 69% and the pEC50 was 6.19.
`Cc1ccc2nc(N3CCCC3)nc(N3CCc4ncc(C(F)(F)F)cc4C3)c2c1` [Compound 206, 6-methyl-2-pyrrolidin-1-yl-4-[3-(trifluoromethyl)-7,8-dihydro-5H-1,6-naphthyridin-6-yl]quinazoline]: the Emax at 30 µM turned out to be 74% and the pEC50 is 6.14.
The like results for `Cn1nccc1Nc1cnc2c(c1)CN(c1nc(NC3CCCOC3)nc3ccc(F)cc13)CC2` (stereo not shown) [Compound 213, 6-fluoro-4-[3-[(2-methylpyrazol-3-yl)amino]-7,8-dihydro-5H-1,6-naphthyridin-6-yl]-N-tetrahydropyran-3-yl-quinazolin-2-amine] were, in that order, 86% and 6.31.
The like results for `Cc1ccc(F)c(Oc2cnc3c(c2)CN(c2ncnc4ccc(Cl)cc24)CC3)c1` [Compound 152, 6-chloro-4-[3-(2-fluoro-5-methyl-phenoxy)-7,8-dihydro-5H-1,6-naphthyridin-6-yl]quinazoline] were, in that order, 72% and 5.28.
The like results for `Cc1ccc2ncnc(N3CCc4ncc(C5CC5)cc4C3)c2c1` [Compound 160, 4-(3-cyclopropyl-7,8-dihydro-5H-1,6-naphthyridin-6-yl)-6-methyl-quinazoline] were, in that order, 90% and 7.52.
For the molecule `Cc1nc(N2CCc3ncc(C(F)(F)F)cc3C2)c2cc(Br)ccc2n1` [Compound 129, 6-bromo-2-methyl-4-[3-(trifluoromethyl)-7,8-dihydro-5H-1,6-naphthyridin-6-yl]quinazoline], the Emax at 30 µM was 86% and the pEC50 is 6.74.
The like results for `COc1ccc2nc(O)nc(N3CCc4ncc(C(F)(F)F)cc4C3)c2c1` [Compound 221, 6-methoxy-4-(3-(trifluoromethyl)-7,8-dihydro-1,6-naphthyiridin-6(5H)-yl)quinazolin-2-ol] were, in that order, 44% and 5.83.
Taken in the same sequence, the figures for `Cc1nc(N2CCc3ncc(-c4cc(F)ccc4C)cc3C2)c2cc(Cl)ccc2n1` [Compound 303, 6-chloro-4-(3-(5-fluoro-2-methylphenyl)-7,8-dihydro-1,6-naphthyridin-6(5H)-yl)-2-methylquinazoline] were 91% and 5.04.
Taken in the same sequence, the figures for `Fc1ccc2ncnc(N3CCc4ncc(N5CCO[C@H](c6ccccc6)C5)cc4C3)c2c1` [Compound 216, (R)-4-(6-(6-fluoroquinazolin-4-yl)-5,6,7,8-tetrahydro-1,6-naphthyridin-3-yl)-2-phenylmorpholine] were 81% and 5.98.
Take `CC1(C)CN(c2cnc3c(c2)CN(c2ncnc4ccc(F)cc24)CC3)CCO1` [Compound 103, 4-[6-(6-fluoroquinazolin-4-yl)-7,8-dihydro-5H-1,6-naphthyridin-3-yl]-2,2-dimethyl-morpholine]: the Emax at 30 µM came to 63% and the pEC50 was 7.30.
Regarding `Cc1nn(C)cc1-c1cnc2c(c1)CN(c1nc(Cl)nc3ncccc13)CC2` [Compound 9, 2-chloro-4-[3-(1,3-dimethylpyrazol-4-yl)-7,8-dihydro-5H-1,6-naphthyridin-6-yl]pyrido[2,3-d]pyrimidine], the Emax at 30 µM turned out to be 66% and the pEC50 is 5.60.
On to `FC(F)(F)c1cnc2c(c1)CN(c1ncnc3ccc(Cl)cc13)CC2` [Compound 140, 6-chloro-4-[3-(trifluoromethyl)-7,8-dihydro-5H-1,6-naphthyridin-6-yl]quinazoline], for which the Emax at 30 µM was determined as 105% and the pEC50 was 7.10.
Taken in the same sequence, the figures for `Cc1nn(-c2cnc3c(c2)CN(c2ncnc4ccc(F)cc24)CC3)c2cccnc12` [Compound 218, 6-fluoro-4-(3-(3-methyl-1H-pyrazolo[4,3-b]pyridin-1-yl)-7,8-dihydro-1,6-naphthyridin-6(5H)-yl)quinazoline] were 73% and 6.24.
The like results for `Cc1ccc2ncnc(N3CCc4ncc(-c5cnn(C6CC6)c5)cc4C3)c2c1` [Compound 12, 4-[3-(1-cyclopropylpyrazol-4-yl)-7,8-dihydro-5H-1,6-naphthyridin-6-yl]-6-methyl-quinazoline] were, in that order, 114% and 6.64.
On to `Cc1nc(N2CCc3ncc(-c4ccc(C5CC5)nc4)cc3C2)c2cc(F)ccc2n1` [Compound 25, 4-[3-(6-cyclopropyl-3-pyridyl)-7,8-dihydro-5H-1,6-naphthyridin-6-yl]-6-fluoro-2-methyl-quinazoline], for which the Emax at 30 µM was found to be 96% and the pEC50 was 6.51.
Taken in the same sequence, the figures for `Cc1ccc(F)cc1-c1cnc2c(c1)CN(c1ncnc3ccc(F)cc13)CC2` [Compound 293, 6-fluoro-4-(3-(5-fluoro-2-methylphenyl)-7,8-dihydro-1,6-naphthyridin-6(5H)-yl)quinazoline] were 80% and 6.13.
The like results for `Cc1nc(N2CCc3ncc(N4CCN(C)C(=O)C4)cc3C2)c2cc(Cl)ccc2n1` [Compound 274, 4-(6-(6-chloro-2-methylquinazolin-4-yl)-5,6,7,8-tetrahydro-1,6-naphthyridin-3-yl)-1-methylpiperazin-2-one] were, in that order, 82% and 6.19.
Consider `[2H]c1nc(N2CCc3ncc(C(F)(F)F)cc3C2)c2cc(F)ccc2n1` [Compound 190, 2-deuterio-6-fluoro-4-[3-(trifluoromethyl)-7,8-dihydro-5H-1,6-naphthyridin-6-yl]quinazoline], for which the maximum response (Emax) at 30 µM is 91% and the negative logarithm of the EC50 (pEC50) is 7.22.
Taken in the same sequence, the figures for `Cc1nc(N2CCc3ncc(-c4cnc(C)s4)cc3C2)c2cc(F)ccc2n1` [Compound 23, 5-[6-(6-fluoro-2-methyl-quinazolin-4-yl)-7,8-dihydro-5H-1,6-naphthyridin-3-yl]-2-methyl-thiazole] were 93% and 6.77.
The like results for `COc1cc2c(N3CCc4ncc(N5CCCn6nccc65)cc4C3)nc(Cl)nc2cc1F` [Compound 102, 2-chloro-4-[3-(6,7-dihydro-5H-pyrazolo[1,5-a]pyrimidin-4-yl)-7,8-dihydro-5H-1,6-naphthyridin-6-yl]-7-fluoro-6-methoxy-quinazoline] were, in that order, 78% and 6.68.
The like results for `Cc1ccc2ncnc(N3CCc4ncc(-c5cc(F)ccc5C)cc4C3)c2c1` [Compound 299, 4-(3-(5-fluoro-2-methylphenyl)-7,8-dihydro-1,6-naphthyridin-6(5H)-yl)-6-methylquinazoline] were, in that order, 94% and 5.92.
On to `Cc1nc(N2CCc3ncc(-c4cnn(C5CC5)c4)cc3C2)c2cc(C(F)(F)F)ccc2n1` [Compound 59, 4-[3-(1-cyclopropylpyrazol-4-yl)-7,8-dihydro-5H-1,6-naphthyridin-6-yl]-2-methyl-6-(trifluoromethyl)quinazoline], for which the Emax at 30 µM is 58% and the pEC50 is 5.71.
For the molecule `Cn1nccc1-c1cnc2c(c1)CN(c1ncnc3ccc(Cl)cc13)CC2` [Compound 39, 6-chloro-4-[3-(2-methylpyrazol-3-yl)-7,8-dihydro-5H-1,6-naphthyridin-6-yl]quinazoline], the Emax at 30 µM came to 84% and the pEC50 is 7.22.
